Source: paper PMC7201828, “Comparison of Inhibitor and Substrate Selectivity between Rodent and Human Vascular Adhesion Protein-1” (Mediators of Inflammation, 2020)
“Also recorded” adds a separate entry of the source. Where two headings read alike, the source gives them in different places. Values belong to the compound of their own block, whether it stands above or below them.

Assays:
[1] = test system: mice; set-up: method as in PMID 16081681, PMID 23263543; conditions: oral administration to mice, ulcerative colitis and LPS-induced endotoxemia; cited from earlier work
[2] = biological target: T1, recombinant mouse VAP-1 (rmVAP-1) (Mus musculus, UniProt O70423); experiment: VAP-1 oxidative deamination fluorescence assay (Amplex Red, benzylamine), inhibition
T1 sequence (O70423 28-765 limits assumed): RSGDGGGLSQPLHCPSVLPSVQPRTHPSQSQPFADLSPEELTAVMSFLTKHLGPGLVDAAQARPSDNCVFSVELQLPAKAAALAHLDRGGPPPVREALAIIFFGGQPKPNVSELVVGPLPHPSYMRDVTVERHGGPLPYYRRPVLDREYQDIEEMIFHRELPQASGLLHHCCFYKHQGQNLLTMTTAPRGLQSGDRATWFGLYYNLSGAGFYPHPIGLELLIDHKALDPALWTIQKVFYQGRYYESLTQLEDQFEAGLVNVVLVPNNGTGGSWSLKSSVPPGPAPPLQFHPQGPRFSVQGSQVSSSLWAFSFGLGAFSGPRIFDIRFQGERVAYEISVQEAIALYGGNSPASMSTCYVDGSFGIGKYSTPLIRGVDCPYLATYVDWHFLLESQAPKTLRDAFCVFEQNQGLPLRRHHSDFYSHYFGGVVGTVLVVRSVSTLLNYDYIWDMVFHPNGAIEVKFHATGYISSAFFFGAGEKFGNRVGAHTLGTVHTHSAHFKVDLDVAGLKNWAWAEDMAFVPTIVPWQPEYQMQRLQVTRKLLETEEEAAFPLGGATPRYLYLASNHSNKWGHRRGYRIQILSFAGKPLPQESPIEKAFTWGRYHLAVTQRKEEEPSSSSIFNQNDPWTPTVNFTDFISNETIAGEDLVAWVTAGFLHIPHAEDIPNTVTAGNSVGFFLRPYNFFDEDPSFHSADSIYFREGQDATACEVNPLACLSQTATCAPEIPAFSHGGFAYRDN
Method: (§2) The enzymatic activity of recombinant VAP-1 and inhibitor potency was determined using a variation of the fluorometric assay for measuring hydrogen peroxide formation [22]. Briefly, the assay measures the H2O2 generated during the oxidative deamination of an amine substrate (BA for inhibition purposes) by converting Amplex® Red to the fluorescent product, resorufin, via horseradish peroxidase (HRP). […] Stock solutions of Amplex Red (1 mM), HRP (10 U/mL), the substrates (200 μM BA for inhibition), and inhibitor were prepared in reaction buffer and added to the appropriate wells, that the final concentration in each well was 0.05 mM Amplex Red, 0.5 U/mL HRP, and 50 μM BA (saturating condition) in a total reaction volume of 0.1 mL.
(§3) Standard curves were prepared for each plate by serially diluting H2O2 in reaction buffer with equivalent concentrations of Amplex Red and HRP. A 10 μM solution of resorufin was prepared in reaction buffer and was dispensed in duplicate as the positive control for maximum fluorescence. Plates were incubated for 30 minutes at 37°C, protected from light under foil to minimize the resorufin artifactually formed when Amplex Red is exposed to light [28]. The plate was read at 530/35 emission and 590/35 excitation. The mean fluorescence of the background was subtracted from the mean fluorescence of the inhibitor concentration in the presence of BA. The percent control was calculated using equation (1). […] (1) %control=average fluorescence with inhibitor−background/average fluorescence of reaction without inhibitor−background×100, (2) %inhibition=100−%control.

[3] = test system: VAP-1 from human umbilical cord homogenates; set-up: method as in PMID 16081681; conditions: radiolabeled substrate, read-out: IC50 previously reported, Human; cited from earlier work
[4] = test system: rats; set-up: method as in PMID 16081681, PMID 23263543; conditions: oral administration to rats, carrageenan footpad model; cited from earlier work
[5] = test system: VAP-1 from rat lung homogenates; set-up: method as in PMID 16081681; conditions: radiolabeled substrate, read-out: IC50 previously reported, Rat; cited from earlier work
[6] = biological target: T2, recombinant human VAP-1 (rhVAP-1) (Homo sapiens, UniProt Q16853); experiment: VAP-1 oxidative deamination fluorescence assay (Amplex Red, benzylamine), inhibition; type: biochemical; conditions: for IC50: recombinant human VAP-1, 50 μM BA, 30 minutes at 37°C, three separate determinations, read-out: IC50 mean ± SD, Human
T2 construct: purchased R&D Systems 3957-AO-010; host or cells: Spodoptera frugiperda Sf21 (baculovirus)
T2 sequence (Q16853 27-763 limits assumed): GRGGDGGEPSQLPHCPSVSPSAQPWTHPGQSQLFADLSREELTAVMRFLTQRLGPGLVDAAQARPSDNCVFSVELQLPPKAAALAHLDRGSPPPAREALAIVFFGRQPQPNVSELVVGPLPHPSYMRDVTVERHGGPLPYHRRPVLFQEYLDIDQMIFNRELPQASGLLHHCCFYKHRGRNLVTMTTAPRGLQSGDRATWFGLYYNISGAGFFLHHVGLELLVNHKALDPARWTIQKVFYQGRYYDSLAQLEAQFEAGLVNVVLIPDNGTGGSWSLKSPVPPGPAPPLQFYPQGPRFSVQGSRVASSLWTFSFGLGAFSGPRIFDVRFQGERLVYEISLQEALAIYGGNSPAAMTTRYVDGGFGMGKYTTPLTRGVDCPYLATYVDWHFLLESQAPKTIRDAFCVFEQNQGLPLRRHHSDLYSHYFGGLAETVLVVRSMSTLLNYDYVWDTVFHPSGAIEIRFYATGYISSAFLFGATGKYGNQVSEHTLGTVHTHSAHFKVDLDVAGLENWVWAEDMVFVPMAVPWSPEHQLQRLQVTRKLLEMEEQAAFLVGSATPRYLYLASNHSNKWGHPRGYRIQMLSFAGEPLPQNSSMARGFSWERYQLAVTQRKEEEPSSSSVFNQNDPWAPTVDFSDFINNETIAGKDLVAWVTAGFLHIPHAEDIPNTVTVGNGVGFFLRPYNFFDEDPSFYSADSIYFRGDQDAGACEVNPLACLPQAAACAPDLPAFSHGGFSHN
Method: (§1) Data processing was performed using Prism software.

[7] = biological target: T3, recombinant rat VAP-1 (rrVAP-1) (Rattus norvegicus, UniProt O08590); experiment: as above; type: biochemical; conditions: recombinant rat VAP-1, 50 μM BA, 30 minutes at 37°C, three separate determinations; read-out: IC50 mean ± SD, Rat
T3 construct: purchased R&D Systems (custom product); host or cells: Spodoptera frugiperda Sf21 (baculovirus)
T3 sequence (O08590 28-763 limits assumed): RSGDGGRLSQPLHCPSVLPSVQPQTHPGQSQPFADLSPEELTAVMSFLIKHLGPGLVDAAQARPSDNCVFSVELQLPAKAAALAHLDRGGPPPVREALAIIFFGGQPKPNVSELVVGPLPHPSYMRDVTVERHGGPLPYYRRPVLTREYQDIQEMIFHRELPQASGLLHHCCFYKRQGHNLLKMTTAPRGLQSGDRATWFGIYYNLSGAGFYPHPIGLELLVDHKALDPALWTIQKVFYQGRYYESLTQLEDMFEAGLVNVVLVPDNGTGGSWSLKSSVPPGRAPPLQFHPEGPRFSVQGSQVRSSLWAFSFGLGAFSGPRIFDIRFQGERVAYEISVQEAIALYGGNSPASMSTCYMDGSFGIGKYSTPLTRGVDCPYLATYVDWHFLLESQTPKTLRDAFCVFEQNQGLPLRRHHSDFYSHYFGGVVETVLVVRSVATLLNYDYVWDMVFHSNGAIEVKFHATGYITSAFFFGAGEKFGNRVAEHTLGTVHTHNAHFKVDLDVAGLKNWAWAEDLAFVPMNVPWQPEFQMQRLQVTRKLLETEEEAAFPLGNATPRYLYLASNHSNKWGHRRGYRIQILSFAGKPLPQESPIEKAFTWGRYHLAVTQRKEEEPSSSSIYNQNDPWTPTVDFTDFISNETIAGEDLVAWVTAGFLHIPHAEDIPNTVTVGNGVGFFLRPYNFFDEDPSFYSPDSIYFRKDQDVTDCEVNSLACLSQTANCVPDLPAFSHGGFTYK
Method: as §1

[8] = biological target: recombinant mouse VAP-1 (Mus musculus, UniProt O70423); experiment: Substrate saturation curves, fluorometric assay detecting hydrogen peroxide; conditions: recombinant mouse VAP-1, n = 1 plate
Method: as §2, §3
(§4) Both substrates were incubated with recombinant VAP-1 in triplicate on three separate plates.

[9] = test system: VAP-1 in in vitro tissue preparations; set-up: method as in PMID 8920635; conditions: humans; cited from earlier work
[10] = test system: VAP-1 from rat aorta homogenates; conditions: read-out: IC50 previously reported, Rat, 14C-BA; cited from earlier work
[11] = test system: VAP-1 in bovine lung microsomes; set-up: method as in PMID 8694842; conditions: coincubated with benzylamine; cited from earlier work
[12] = test system: human VAP-1 from aorta membrane preparations; conditions: read-out: IC50 previously reported, Human, LC-MS/MS benzaldehyde formation; cited from earlier work
[13] = biological target: human VAP-1 recombinant enzymes; conditions: read-out: IC50 previously reported, Human, LC-MS/MS benzaldehyde formation; cited from earlier work
[14] = test system: human VAP-1; set-up: method as in PMID 23540955; conditions: recombinant enzyme suspension from CHO cells expressing human VAP-1, 14C-BA; read-out: IC50 previously reported, Human; cited from earlier work
[15] = test system: rat VAP-1; set-up: method as in PMID 23540955; conditions: recombinant enzyme suspension from CHO cells expressing rat VAP-1, 14C-BA; read-out: IC50 previously reported, Rat; cited from earlier work
[16] = test system: rhVAP-1; set-up: method as in PMID 23664164; conditions: recombinant human VAP-1; cited from earlier work
[17] = test system: STZ-induced diabetic rats; set-up: method as in PMID 23664164; conditions: administered subcutaneously; cited from earlier work
[18] = test system: VAP-1; set-up: method as in PMID 16570912; conditions: cell-based inhibition assay; cited from earlier work
[19] = test system: lysyl oxidase (LOX); set-up: method as in PMID 17872591, PMID 17452500, PMID 18469024; conditions: cited from earlier work
[20] = biological target: recombinant human VAP-1 (Homo sapiens, UniProt Q16853); experiment: Substrate saturation curves, fluorometric assay detecting hydrogen peroxide; conditions: recombinant human VAP-1, n = 1 plate
Method: as §2, §3, §4

[21] = biological target: recombinant rat VAP-1 (Rattus norvegicus, UniProt O08590); experiment: as above; conditions: recombinant rat VAP-1, n = 1 plate
Method: as §2, §3, §4

[22] = test system: rat and mouse disease models; conditions: various rat and mouse disease models; cited from earlier work

SMILES: C=C(CNN)c1ccccc1 [LJP-1207]
Reduction of inflammation [1]: effective in reducing inflammation
IC50 [2]: 102 ± 47.8 nM
IC50 [3]: 17 nM
Reduction of inflammation [4]: effective in reducing inflammation
IC50 [5]: 7.5 nM
IC50 [6]: 0.252 ± 0.0225 µM
IC50 [7]: 120 ± 6.7 nM

SMILES: NCCc1ccc(O)cc1 [TYR, tyramine]
Substrate turnover (in words) [8]: low reaction rates; also recorded: not a substrate
Km [9]: 10.5 mM

IC50 [2]: 1180 ± 92 nM
IC50 [6]: 7.75 ± 2.32 µM
IC50 [7]: 3130 ± 123 nM
SMILES: NNc1nncc2ccccc12 [Hydralazine (HYD), hydralazine]
IC50 [10]: 25 nM
Potency relative to semicarbazide [11]: twenty times more potent
IC50 [12]: 6.4 µM
IC50 [13]: 26.5 µM

IC50 [2]: 414 ± 113 nM
IC50 [6]: 0.0225 ± 0.0069 µM
IC50 [7]: 50.4 ± 6.8 nM
SMILES: CC(=O)Nc1nc(CCc2ccc(NC(=N)N)cc2)c(Cc2ccc(S(C)(=O)=O)cc2)s1 [Astellas compound 35c]
IC50 [14]: 20 nM
IC50 [15]: 72 nM
IC50 [16]: 230 nM
Ocular permeability [17]: significantly reduced ocular permeability

SMILES: NNC(N)=O [Semiarid (SEM), semicarbazide]
Semicarbazide required for inhibition relative to LJP-1207 [18]: 100 x
IC50 ([2]; read-out: IC50 mean ± SD, Mouse, recombinant mouse VAP-1, 50 μM BA, 30 minutes at 37°C, three separate determinations): 295000 ± 29000 nM
Inhibition of lysyl oxidase (in words) [19]: inhibits
Difference in IC50 between human and rat VAP-1 ([6]; 85.9 μM vs. 993 μM): ~10 fold
IC50 [6]: 85.9 ± 12.9 µM
IC50 [7]: 993000 ± 1.22e+06 nM

SMILES: NNc1ccccc1 [phenylhydrazine]
Potency relative to semicarbazide [11]: over 100 times

SMILES: NCCc1c[nH]c2ccccc12 [tryptamine]
Substrate turnover (in words) [20]: low reaction rates
Substrate turnover (in words) [8]: low reaction rates
Substrate turnover (in words) [21]: low reaction rates

SMILES: NCCc1ccccc1 [Phenylethylamine (PEA), phenylethylamine]
Km [9]: 7.9 mM

SMILES: CC(C)(C)NC(=O)c1ccc(OC/C(=C/F)CN)cc1 [PXS-4728A]
Leukocyte adhesion and migration to sites of lung inflammation [22]: reduced leukocyte adhesion and migration

SMILES: NNCCc1ccccc1 [phenelzine]
Potency relative to semicarbazide [11]: over 100 times
